{
  "source": "patent US20210161808A1",
  "about": "“Nasal Drug Delivery System of Brivaracetam or Salt Thereof” (Zenvision Pharma LLP, priority 2018, published 2021)",
  "origin": "cited, not measured here",
  "key": {"[1]": {"target": "synaptic vesicle protein 2A (SV2A) (Homo sapiens, UniProt Q7L0J3)", "sequence (Q7L0J3 whole entry)": "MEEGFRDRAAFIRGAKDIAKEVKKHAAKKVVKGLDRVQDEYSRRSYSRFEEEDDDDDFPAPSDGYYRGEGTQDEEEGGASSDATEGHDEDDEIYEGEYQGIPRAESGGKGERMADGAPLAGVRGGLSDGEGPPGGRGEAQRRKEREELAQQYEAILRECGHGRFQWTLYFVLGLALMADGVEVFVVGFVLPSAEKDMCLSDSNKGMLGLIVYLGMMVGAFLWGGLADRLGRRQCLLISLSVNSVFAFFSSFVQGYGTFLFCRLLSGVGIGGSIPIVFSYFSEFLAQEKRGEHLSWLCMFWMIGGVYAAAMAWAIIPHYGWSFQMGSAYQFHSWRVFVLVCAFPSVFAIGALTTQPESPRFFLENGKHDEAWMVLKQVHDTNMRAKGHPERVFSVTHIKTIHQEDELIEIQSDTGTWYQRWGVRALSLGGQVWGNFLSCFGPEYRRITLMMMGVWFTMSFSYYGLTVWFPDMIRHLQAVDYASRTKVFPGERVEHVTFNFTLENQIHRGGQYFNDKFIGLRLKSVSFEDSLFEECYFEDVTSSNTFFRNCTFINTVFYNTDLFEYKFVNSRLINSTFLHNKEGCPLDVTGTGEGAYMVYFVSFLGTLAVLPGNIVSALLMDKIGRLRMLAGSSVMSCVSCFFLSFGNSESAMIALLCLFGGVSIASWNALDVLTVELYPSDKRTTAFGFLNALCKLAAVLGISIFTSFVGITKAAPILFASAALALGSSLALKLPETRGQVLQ", "conditions": "in the brain"}},
  "note": "Like-named read-outs stand apart in the source and are kept apart here.",
  "data": [
    {"smiles": "CCC[C@@H]1CC(=O)N([C@@H](CC)C(N)=O)C1", "note": "[Brivaracetam, (2S)-2-[(4R)-2-oxo-4-propyltetrahydro-1H-pyrrol-1-yl] butanamide]", "values": [
      {"measurement": "solubility", "setting": "in acetone", "value": "freely soluble"},
      {"measurement": "solubility", "setting": "in acetonitrile", "value": "freely soluble"},
      {"measurement": "solubility", "setting": "in buffer (pH 1.2, 4.5, and 7.4)", "value": "very soluble"},
      {"measurement": "solubility", "setting": "in ethanol", "value": "very soluble"},
      {"measurement": "solubility", "setting": "in glacial acetic acid", "value": "very soluble"},
      {"measurement": "solubility", "setting": "in methanol", "value": "very soluble"},
      {"measurement": "solubility", "setting": "in n-hexane", "value": "very slightly soluble"},
      {"measurement": "solubility", "setting": "in toluene", "value": "soluble"},
      {"measurement": "solubility", "setting": "in water", "value": "very soluble"},
      {"measurement": "affinity for synaptic vesicle protein 2A (SV2A)", "setting": "[1]", "value": "high and selective affinity"}
    ]}
  ]
}
